In patent publication US20230357233A1, “HETEROARYL COMPOUNDS, PREPARATION METHODS AND USES THEREOF” (INVENTISBIO CO., LTD., priority 2020, published 2023):

molecular target: Ba/F3_KRAS^G12D cells (Homo sapiens, UniProt P01116, G12D, cells depend on it); assay: Ba/F3 KRAS^G12D cell proliferation assay (cell-titer Glo); format: cell-based; conditions: cell growth inhibition, treated with the compounds for 3 days, read-out: BaF3_KRAS^G12D IC50
Method: Cells were seeded at a density of 5×10^3 per well into 96-well plate and incubated overnight. Serial diluted compounds were added to each well. Cells were treated with the compounds for 3 days, after which cell-titer Glo reagent (Promega #G7572) was used to assess cell proliferation. The luminescence signal was then collected on Tecan Spark plate reader. […] Cell growth inhibition of IC50 is calculated with the equation of Y=Bottom+(Top−Bottom)/(1+10^((LogIC50−X)*HillSlope))

Sequence of Ba/F3_KRAS^G12D cells (P01116 whole entry G12D): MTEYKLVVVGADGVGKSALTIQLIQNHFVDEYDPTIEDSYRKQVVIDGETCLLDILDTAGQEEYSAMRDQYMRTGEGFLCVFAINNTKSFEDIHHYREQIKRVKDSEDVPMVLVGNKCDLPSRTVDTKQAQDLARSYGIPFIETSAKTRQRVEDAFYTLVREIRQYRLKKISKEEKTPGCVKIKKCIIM

Compound | GI50 [µM]
C#Cc1c(F)ccc2cc(O)cc(-c3ncc4c(N5CC6CCC(C5)N6)nc(OC[C@@]56CCCN5C[C@H](F)C6)nc4c3F)c12 [Compound 129] | < 0.5
Cc1nc(-c2cc(O)cc3ccc(F)c(OC(F)F)c23)c(F)c2nc(OC[C@@]34CCCN3C[C@H](F)C4)nc(N3CC4CCC(C3)N4)c12 [Compound 144] | < 0.5
CCOc1nc(-c2cc(N)cc(F)c2C(F)(F)F)c(F)c2nc(OC[C@@]34CCCN3C[C@H](F)C4)nc(N3CC4CCC(C3)N4)c12 [Compound 213] | < 0.5
C#Cc1c(F)ccc2cc(O)cc(-c3nc(OC)c4c(N5CC6CCC(C5)N6)nc(OC[C@@]56CCCN5[C@@H](COC(=O)N(C)C)CC6)nc4c3F)c12 [Compound 177] | < 0.5
C#Cc1c(F)ccc2cc(O)cc(-c3nc(OC(C)C)c4c(N5CC6CCC(C5)N6)nc(NC)nc4c3F)c12 [Compound 186] | 0.5 to 5
C#Cc1c(F)ccc2cccc(-c3nc(OC)c4c(N5CCNCC(F)(F)C5)nc(OC[C@]56CCCN5[C@@H](COC(=O)N(C)C)CC6)nc4c3F)c12 [Compound 247] | 0.5 to 5
CCc1cccc2cc(N)cc(-c3nc(OC)c4c(N5CC6CCC(C5)N6)nc(OC[C@@]56CCCN5C[C@H](F)C6)nc4c3F)c12 [Compound 157] | < 0.5
CCc1c(F)ccc2c(F)c(O)cc(-c3nc(C)c4c(N5CC6CCC(C5)N6)nc(OC[C@@]56CCCN5C[C@H](F)C6)nc4c3F)c12 [Compound 151] | > 5
C#Cc1c(F)ccc2cc(O)cc(-c3nc(OC(C)C)c4c(N5CC6CCC(C5)N6C)nc(OC[C@@]56CCCN5C[C@H](F)C6)nc4c3F)c12 [Compound 203] | < 0.5
C#Cc1c(F)ccc2cc(O)cc(-c3nc(OC(C)C)c4c(N5CCNC(C(F)F)C5)nc(OC[C@@]56CCCN5C[C@H](F)C6)nc4c3F)c12 (stereo partly shown) [Compound 220] | < 0.5
C#Cc1c(F)ccc2cc(O)cc(-c3c(F)c4nc(OC[C@@]56CCCN5C[C@H](F)C6)nc(N5CC6CCC(C5)N6)c4c4ncnn34)c12 (single isomer, unassigned) [Compound 155] | < 0.5
CCOc1nc(-c2cc(O)cc(F)c2C(F)(F)F)c(F)c2nc(OC[C@@]34CCCN3C[C@H](F)C4)nc(N3CC4CCC(C3)N4)c12 [Compound 214] | 0.5 to 5
C#Cc1c(F)ccc2cc(N)cc(-c3nc(OC)c4c(N5CC6CCC(C5)N6)nc(OC[C@@H]5C[C@H](F)CN5C)nc4c3F)c12 [Compound 209] | < 0.5
C#Cc1c(F)ccc2cc(N)cc(-c3nc(OC)c4c(N5CC6CCC(C5)N6)nc(OC[C@@H]5C[C@@H](F)CN5C)nc4c3F)c12 [Compound 208] | < 0.5
CCOc1nc(-c2cccc3ccc(F)c(CC)c23)c(F)c2nc(OC[C@]34CCCN3[C@@H](COC(=O)N(C)C)CC4)nc(N3CC4CCC(C3)N4)c12 [Compound 237] | < 0.5
C#Cc1c(F)ccc2cc(O)cc(-c3nc(OC(C)C)c4c(N5CC6CCC(C5)N6)nc(OC[C@]56CCCN5[C@@H](CO)CC6)nc4c3F)c12 [Compound 227] | < 0.5
C#Cc1c(F)ccc2cc(O)cc(-c3nc(OC)c4c(N5CC6CCC(C5)N6)nc(OC[C@]56CCCN5[C@H](COC(=O)N(C)C)CC6)nc4c3F)c12 [Compound 178] | < 0.5
CNC(=O)COc1nc(-c2cc(O)cc3ccccc23)c(F)c2nc(OC[C@@]34CCCN3C[C@H](F)C4)nc(N3CC4CCC(C3)N4)c12 [Compound 145] | 0.5 to 5
C#Cc1c(F)ccc2cc(O)cc(-c3nc(OCC(F)(F)F)c4c(N5CC6CCC(C5)N6)ncnc4c3F)c12 [Compound 153] | 0.5 to 5
C#Cc1c(F)ccc2cc(O)cc(-c3nc(OC)c4c(N5CC6CCC(C5)N6)nc(OCC5(CN6CCC6)CC5)nc4c3F)c12 [Compound 184] | < 0.5
C#Cc1c(F)ccc2cc(O)cc(-c3nc(OC(C)C)c4c(N5CC6CCC(C5)N6)nc(OC[C@]56CCCN5[C@H](COC(=O)N(C)C)CC6)nc4c3F)c12 [Compound 226] | < 0.5
CCc1c(F)ccc2cc(O)cc(-c3ncc4c(N5CC6CCC(C5)N6)nc(OC[C@@]56CCCN5C[C@H](F)C6)nc4c3F)c12 [Compound 140] | < 0.5
C#Cc1c(F)ccc2cc(N)cc(-c3nc(OC(C)C)c4c(N5CC6CCC(C5)N6)nc(OC[C@@]56CCCN5C[C@H](F)C6)nc4c3F)c12 [Compound 200] | < 0.5
CCc1c(F)ccc2cc(O)cc(-c3nc(OC)c4c(N5CC6CCC(C5)N6)nc(OC[C@]56CCCN5[C@@H](COC(=O)N(C)C)CC6)nc4c3F)c12 [Compound 215] | < 0.5
C#Cc1c(F)ccc2cccc(-c3nc(OC(C)C)c4c(N5CC6CCC(C5)N6)nc(OC[C@]56CCCN5[C@@H](COC(=O)N5CCOCC5)CC6)nc4c3F)c12 [Compound 245] | < 0.5
C#Cc1c(F)ccc2cc(O)cc(-c3nc(OC(C)C)c4c(N5CC6CCC(C5)N6)nc(OCCOC)nc4c3F)c12 [Compound 192] | < 0.5
C#Cc1c(F)ccc2cc(O)cc(-c3c(F)c4nc(OC[C@@]56CCCN5C[C@H](F)C6)nc(N5CC6CCC(C5)N6)c4c4ncnn34)c12 (single isomer, unassigned) [Compound 156] | < 0.5
Cc1cc(-c2nc(OC(C)C)c3c(N4CC5CCC(C4)N5)nc(OC[C@@]45CCCN4C[C@H](F)C5)nc3c2F)c(C(F)(F)F)c(N)n1 [Compound 199] | < 0.5

Compound | GI50 [µM]
C#Cc1c(F)ccc2cccc(-c3nc(OCC)c4c(N5CC6CCC(C5)N6)nc(OC[C@@]56CCCN5C[C@H](F)C6)nc4c3F)c12 [Compound 168] | < 0.5
C#Cc1c(F)ccc2cc(O)cc(-c3nc(OC(C)C)c4c(N5CC6CCC(C5)N6)nc(OCC5(CN6CCN(C(=O)OC)CC6)CC5)nc4c3F)c12 [Compound 232] | < 0.5
C#Cc1c(F)ccc2cc(N)cc(-c3nc(Cl)c4c(N5CC6CCC(C5)N6)nc(OC[C@@]56CCCN5C[C@H](F)C6)nc4c3F)c12 [Compound 158] | < 0.5
Oc1cc(-c2nc(C(F)F)c3c(N4CC5CCC(C4)N5)nc(OC[C@@]45CCCN4C[C@H](F)C5)nc3c2F)c2c(Cl)c(F)ccc2c1 [Compound 167] | < 0.5
C#Cc1c(F)ccc2cc(O)cc(-c3nc(OC)c4c(N5CC6CCC(C5)N6)nc(OC[C@]56CCCN5[C@@H](COC(=O)N(C)CCCCCCCCCCCCCCCC)CC6)nc4c3F)c12 [Compound 243] | < 0.5
C#Cc1c(F)ccc2cccc(-c3nc(OC(C)C)c4c(N5CC6CCC(C5)N6)nc(OC[C@@H]5C[C@@H](OC(=O)N(C)CCCCCCCCCCCCCCCC)CN5C)nc4c3F)c12 [Compound 246] | 0.5 to 5
C#Cc1c(F)ccc2cc(O)cc(-c3nc(O)c4c(N5CC6CCC(C5)N6)nc(C(F)F)nc4c3F)c12 [Compound 211] | 0.5 to 5
C#Cc1c(F)ccc2cc(O)cc(-c3nc(C(F)(F)F)c4c(N5CC6CCC(C5)N6)nc(OC[C@@]56CCCN5C[C@H](F)C6)nc4c3F)c12 [Compound 170] | < 0.5
Oc1cc(-c2nc(O)c3c(N4CC5CCC(C4)N5)nc(OC[C@@]45CCCN4C[C@H](F)C5)nc3c2F)c2c(Cl)c(F)ccc2c1 [Compound 174] | 0.5 to 5
C#Cc1c(F)ccc2cc(N)cc(-c3nc(O)c4c(N5CC6CCC(C5)N6)nc(OC[C@@]56CCCN5C[C@H](F)C6)nc4c3F)c12 [Compound 201] | 0.5 to 5
C#Cc1c(F)ccc2cc(O)cc(-c3nc(OC(C)C)c4c(N5CC6CCC(C5)N6)nc(OCC5(CN6CCN(C)CC6)CC5)nc4c3F)c12 [Compound 230] | < 0.5
C#Cc1c(F)ccc2cc(O)cc(-c3nc(OC)c4c(N5CC6CCC(C5)N6)ncnc4c3F)c12 [Compound 161] | < 0.5
C#Cc1c(F)ccc2cc(O)cc(-c3nc(OC(C)C)c4c(N5CC6CCC(C5)N6)ncnc4c3F)c12 [Compound 150] | < 0.5
C#Cc1c(F)ccc2cc(O)cc(-c3nc(OC(C)C)c4c(N5CC6CCC(C5)N6)nc(C(F)F)nc4c3F)c12 [Compound 190] | < 0.5
C#Cc1c(F)ccc2cc(O)cc(-c3nc(OC)c4c(N5CC6CCC(C5)N6)nc(OCC5(CN6CCOCC6)CC5)nc4c3F)c12 [Compound 185] | < 0.5
C#Cc1c(F)ccc2cc(O)cc(-c3nc(OC(C)C)c4c(N5CCNC6(CC6)C5)nc(OC[C@@]56CCCN5C[C@H](F)C6)nc4c3F)c12 [Compound 241] | < 0.5
C#Cc1c(F)ccc2cccc(-c3nc(OC(C)C)c4c(N5CC6CCC(C5)N6)nc(OC[C@]56CCCN5[C@@H](CO)CC6)nc4c3F)c12 [Compound 238] | < 0.5
CCc1c(F)ccc2cccc(-c3nc(OC)c4c(N5CC6CCC(C5)N6)nc(OC[C@]56CCCN5[C@@H](COC(=O)N(C)C)CC6)nc4c3F)c12 [Compound 217] | < 0.5
C#Cc1c(F)ccc2cc(O)cc(-c3nc(OC(C)C)c4c(N5CC6CCC(C5)N6)nc(OCC5(CN6CCN(C(C)=O)CC6)CC5)nc4c3F)c12 [Compound 231] | < 0.5
C#Cc1c(F)ccc2cccc(-c3nc(OCC)c4c(N5CC6CCC(C5)N6)nc(OC[C@]56CCCN5[C@@H](COC(=O)N(C)C)CC6)nc4c3F)c12 [Compound 236] | < 0.5
C#Cc1c(F)ccc2cc(O)cc(-c3nc(OCC)c4c(N5CC6CCC(C5)N6)ncnc4c3F)c12 [Compound 221] | < 0.5
C#Cc1c(F)ccc2cc(O)cc(-c3nc(OCC)c4c(N5CC6CCC(C5)N6)nc(OC[C@]56CCCN5[C@@H](COC(=O)N(C)C)CC6)nc4c3F)c12 [Compound 233] | < 0.5
C#Cc1c(F)ccc2cc(O)cc(-c3nc(OC)c4c(N5CC6CCC(C5)N6)nc(OC)nc4c3F)c12 [Compound 162] | < 0.5
C#Cc1c(F)ccc2c(F)c(O)cc(-c3nc(C)c4c(N5CC6CCC(C5)N6)nc(OC[C@@]56CCCN5C[C@H](F)C6)nc4c3F)c12 [Compound 143] | < 0.5
C#Cc1c(F)ccc2cccc(-c3nc(O)c4c(N5CC6CCC(C5)N6)nc(OC[C@@]56CCCN5C[C@H](F)C6)nc4c3F)c12 [Compound 154] | 0.5 to 5
C#Cc1c(F)ccc2cc(O)cc(-c3nc(OC)c4c(N5CC6CCC(C5)N6)nc(OCC5(CN(C)C)CC5)nc4c3F)c12 [Compound 182] | < 0.5
C#Cc1c(F)ccc2cc(O)cc(-c3nc(O)c4c(N5CC6CCC(C5)N6)nc(OC[C@@H]5CCCN5C)nc4c3F)c12 [Compound 196] | 0.5 to 5
